Experimental findings from US20250115591A1, “NOVEL SULFONAMIDE CARBOXAMIDE COMPOUNDS” (INFLAZOME LIMITED, priority 2017, published 2025) are described below.

Structures can show the parent of a compound that is named as a salt.

Data set [1] in a line: PK, intravenous administration. It is filed as in vivo, male Sprague Dawley rats. The conditions noted are these: male, Sprague Dawley, plasma, rat, intravenous, dose 1 mg/kg; for AUC: read-out: AUC; for clearance: read-out: Cl; for half-life: read-out: T1/2 (converted); for Vd: read-out: Vdss.
Data set [2] deals with T1, NLRP3 (Homo sapiens (Human), UniProt Q96P20). Description: THP-1 cells pyroptosis assay (LPS + nigericin, resazurin read-out). It is filed as cell-based. As to conditions: 1 μg/ml LPS, 5 μM nigericin. In outline:
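LPS-primed (1 μg/ml) human THP-1 cells in serum-free RPMI were exposed to compound (8-point half-log series, top dose as printed "10M") for 3 h at 37 °C, then to nigericin 5 μM for 1 h. Remaining viability was read by resazurin (100 μM, 1-2 h) fluorescence, and IC50 came from 4-parameter variable-slope regression.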

The nature of another data set: PK, oral administration. It is filed as in vivo, male Sprague Dawley rats. As to conditions: male, Sprague Dawley, plasma, rat, dose 3 mg/kg. As to the method: Pharmacokinetic parameters were determined in male Sprague Dawley rats (Charles River, UK, 250-300 g; or Vital River Laboratory Animal Technology Co Ltd, Beijing, China, 7-9 weeks old). Animals were individually housed during the study and maintained under a 12 h light/dark cycle. Animals had free access to food and water except that orally dosed animals were food deprived overnight prior to the study. For intravenous administration, compounds were formulated as a solution in water or DMSO:PBS [10:90] in 2 mL/kg dosing volume and administered via tail vein. For oral administration, compounds were formulated as a solution in water or DMSO:water [10:90] in 5 mL/kg dosing volume and administered orally. Serial blood samples (about 120-300 μL) were taken from each animal at each of 8 time-points post dose (0.083, 0.25, 0.5, 1, 2, 4, 8 and 24 h). Samples were held on ice for no longer than 30 minutes before centrifugation (10,000 rpm (8,385 g) for 3 minutes; or 5,696 rpm (3,000 g) for 15 minutes) for plasma generation. Plasma was frozen on dry ice prior to bioanalysis. PK parameters were generated from LC-MS/MS data using Dotmatics or Phoenix WinNonlin 6.3 software.

In data set [3] the target is T1, NLRP3. The experiment in a line: Human whole blood IL1β release assay (LPS + nigericin). It is filed as cell-based. The conditions noted are these: human whole blood, 1 μg/ml LPS, nigericin, IL-1β release; read-out: HWB IC50. The essentials:
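Healthy-donor heparinized whole blood with 1 μg/ml LPS preincubated 3 h at 37 °C with compound (8-point half-log, top 10 μM, 0.1% DMSO), then nigericin 1 h. Supernatant IL-1β by AlphaLISA; IC50 from 4-parameter variable-slope fit.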

T1 sequence (Q96P20 whole entry): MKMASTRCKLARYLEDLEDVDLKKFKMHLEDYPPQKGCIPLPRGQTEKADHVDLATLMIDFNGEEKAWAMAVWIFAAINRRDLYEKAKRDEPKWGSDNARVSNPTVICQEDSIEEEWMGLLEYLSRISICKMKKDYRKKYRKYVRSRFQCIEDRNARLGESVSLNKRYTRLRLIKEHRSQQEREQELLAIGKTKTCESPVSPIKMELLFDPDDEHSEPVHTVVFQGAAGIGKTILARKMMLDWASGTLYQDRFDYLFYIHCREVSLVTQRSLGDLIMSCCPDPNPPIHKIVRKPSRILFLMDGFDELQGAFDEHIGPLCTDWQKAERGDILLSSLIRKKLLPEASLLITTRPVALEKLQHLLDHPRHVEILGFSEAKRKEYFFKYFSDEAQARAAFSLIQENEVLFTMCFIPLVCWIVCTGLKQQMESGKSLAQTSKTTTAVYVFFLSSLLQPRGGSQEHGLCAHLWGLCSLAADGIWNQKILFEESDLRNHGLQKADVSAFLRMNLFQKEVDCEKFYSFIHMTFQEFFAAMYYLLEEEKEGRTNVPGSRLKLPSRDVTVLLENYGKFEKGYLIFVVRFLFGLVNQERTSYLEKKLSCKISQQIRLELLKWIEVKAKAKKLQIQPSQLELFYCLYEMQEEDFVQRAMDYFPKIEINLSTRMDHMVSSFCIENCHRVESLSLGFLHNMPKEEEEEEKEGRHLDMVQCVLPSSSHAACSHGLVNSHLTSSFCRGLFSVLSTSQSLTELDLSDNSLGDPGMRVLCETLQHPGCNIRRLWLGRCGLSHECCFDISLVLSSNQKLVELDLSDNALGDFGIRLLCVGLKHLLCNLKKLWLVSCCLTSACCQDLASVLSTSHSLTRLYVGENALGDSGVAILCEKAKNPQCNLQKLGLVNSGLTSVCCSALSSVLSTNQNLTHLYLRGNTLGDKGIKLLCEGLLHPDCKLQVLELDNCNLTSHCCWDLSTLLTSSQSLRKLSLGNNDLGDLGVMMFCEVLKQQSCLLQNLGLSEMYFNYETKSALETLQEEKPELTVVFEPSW

Consider `CCN1CCC(S(=O)(=O)NC(=O)Nc2c3c(cc4c2CCC4)CCC3)CC1` [Example 6, 1-Ethyl-N-((1,2,3,5,6,7-hexahydro-s-indacen-4-yl)carbamoyl)piperidine-4-sulfonamide, potassium salt], for which, in data set [1], the AUC amounted to 2340 ng·h/mL, the clearance stood at 7.2 mL/min/kg, the half-life is 2.7 h and the Vd is 0.61 L/kg. The IC50 at NLRP3 [2] is less than 1000 nM. In “PK, oral administration”, the AUC is 5400 ng·h/mL, the concentration peaked (Cmax) at 1770 ng/mL, the Tmax came out at 0.5 h and the half-life was 2.7 h. Moreover, the IC50 on NLRP3 [3] was less than 1000 nM.

For `CC(C)N1CC(S(=O)(=O)NC(=O)Nc2c3c(cc4c2CCC4)CCC3)C1` [Example 46, N-((1,2,3,5,6,7-Hexahydro-s-indacen-4-yl)carbamoyl)-1-iso-propylazetidine-3-sulfonamide, potassium salt], in data set [1], the AUC was found to be 2080 ng·h/mL, the clearance was determined as 8.2 mL/min/kg, the half-life was 1.2 h and the Vd amounted to 0.45 L/kg. The IC50 at NLRP3 [2] was less than 1000 nM. For the same compound, in “PK, oral administration”, the AUC was 3510 ng·h/mL, the highest level (Cmax) was 1330 ng/mL, the Tmax came to 0.67 h and the half-life is 1.4 h. In addition, at NLRP3 [3], the IC50 is less than 1000 nM.

As a reminder, the AUC is concentration integrated over time. Broadly, the IC50 is the concentration that inhibits the measured activity by half. For orientation: Cmax means the highest concentration seen after dosing. The term Tmax denotes the time from dosing to the highest level.
